# Reference: US20260022142A1, “MACROCYCLIC IMMUNOMODULATORS” (Bristol-Myers Squibb Company, priority 2022, published 2026)
# Bridge positions count the residues as written; N and C are the ends. Square brackets hold non-standard residues; d marks the D form. Peptide text beside a SMILES is read from it. * marks the point of attachment. Phe(4-COOH) = N[C@@H](Cc1ccc(C(=O)O)cc1)C(=O)O; Bip = N[C@@H](Cc1ccc(-c2ccccc2)cc1)C(=O)O; Phe(3-Me) = Cc1cccc(C[C@H](N)C(=O)O)c1; 3Pal = N[C@@H](Cc1cccnc1)C(=O)O; 4Pal = N[C@@H](Cc1ccncc1)C(=O)O; Cha = N[C@@H](CC1CCCCC1)C(=O)O; Carboxymethyl = O=C(O)C*; Orn = NCCC[C@H](N)C(=O)O; Aun = NCCCCCCCCCCC(=O)O; Dab = NCC[C@H](N)C(=O)O; Dap = NC[C@H](N)C(=O)O
# Target: T1, PD-1/PD-L1 interaction (PE-labeled human PD-L1-Ig binding to Jurkat cell line over-expressing human PD-1) (Homo sapiens, UniProt Q15116)
# T1 construct: expressed in transfected cells; host or cells: Jurkat
# Test: Jurkat-PD-1 Cell Binding High-Content Screening Assay (CBA)
# Format: cell-based
# Conditions: Jurkat cell line over-expressing human PD-1; PE-labeled PD-L1-Ig 20 nM final; read-out: Jurkat hPD1-PDL1 IC50
# How it was run: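 Jurkat cells over-expressing human PD-1 (8×10^3 per well, DMEM/10% FCS) preincubated with compound 2 h at 37° C, then PE-labeled human PD-L1-Ig (20 nM final) added for 1 h. Cells fixed with paraformaldehyde, Hoechst-stained, and bound fluorescence quantified by high-content imaging.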
# T1 sequence (Q15116 25-288): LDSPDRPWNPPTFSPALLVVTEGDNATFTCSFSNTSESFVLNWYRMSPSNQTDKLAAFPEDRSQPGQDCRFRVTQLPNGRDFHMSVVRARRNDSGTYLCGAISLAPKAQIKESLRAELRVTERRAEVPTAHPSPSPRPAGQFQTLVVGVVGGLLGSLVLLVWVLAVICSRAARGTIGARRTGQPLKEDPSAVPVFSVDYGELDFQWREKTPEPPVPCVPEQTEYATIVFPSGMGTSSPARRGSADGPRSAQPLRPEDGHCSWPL
row,Compound,IC50
1,Cc1cccc(C[C@@H]2NC(=O)[C@H](CC(=O)O)NC(=O)[C@H](Cc3ccc(OCC(=O)O)cc3)NC(=O)[C@H](CN)NC(=O)CSC[C@@H](C(=O)N[C@H](CC(=O)NCCCCCCCCCCC(=O)O)C(N)=O)NC(=O)[C@H]([C@@H](C)O)NC(=O)[C@H](C(C)C)NC(=O)[C@H](CC3CCCCC3)NC(=O)[C@H](CCN)NC(=O)[C@@H](CC(C)C)NC(=O)[C@H](CCCN)NC(=O)[C@H](Cc3ccc(O)cc3)NC(=O)[C@H](Cc3ccc(-c4ccccc4)cc3)NC(=O)[C@H](Cc3ccc(O)cc3)NC2=O)c1 [Compound 2736] ({CH2CO}-[Dap]Y(Carboxymethyl)D[Phe(3-Me)]Y[Bip]Y[Orn][dL][Dab][Cha]VTC[dD](Aun)-NH2; thioether N-14),114 nM
2,Cc1cccc(C[C@@H]2NC(=O)[C@H](CC(=O)O)NC(=O)[C@H](Cc3ccc(OCC(=O)O)cc3)NC(=O)[C@H](CN)NC(=O)CSC[C@@H](C(=O)N[C@@H](CCN)C(=O)NCCCCCCCCCCC(=O)O)NC(=O)[C@H]([C@@H](C)O)NC(=O)[C@H](C(C)C)NC(=O)[C@H](CC3CCCCC3)NC(=O)[C@H](CCN)NC(=O)[C@@H](CC(C)C)NC(=O)[C@H](CCCN)NC(=O)[C@H](Cc3ccc(O)cc3)NC(=O)[C@H](Cc3ccc(-c4ccccc4)cc3)NC(=O)[C@H](CC(C)C)NC2=O)c1 [Compound 2737] ({CH2CO}-[Dap]Y(Carboxymethyl)D[Phe(3-Me)]L[Bip]Y[Orn][dL][Dab][Cha]VTC[Dab][Aun]-OH; thioether N-14),28.8 nM
3,Cc1cccc(C[C@@H]2NC(=O)[C@H](CC(=O)O)NC(=O)[C@H](Cc3ccc(O)cc3)NC(=O)[C@H](CC(N)=O)NC(=O)CSC[C@@H](C(=O)N[C@@H](CCN)C(=O)NCCCCCCCCCCC(=O)O)NC(=O)[C@H]([C@@H](C)O)NC(=O)[C@H](C(C)C)NC(=O)[C@H](CC3CCCCC3)NC(=O)[C@H](CCN)NC(=O)[C@@H](CC(C)C)NC(=O)[C@H](CCCN)NC(=O)[C@H](Cc3ccc(O)cc3)NC(=O)[C@H](Cc3ccc(-c4ccccc4)cc3)NC(=O)[C@H](C(C)C)NC2=O)c1 [Compound 2738] ({CH2CO}-NYD[Phe(3-Me)]V[Bip]Y[Orn][dL][Dab][Cha]VTC[Dab][Aun]-OH; thioether N-14),63.2 nM
4,Cc1cccc(C[C@@H]2NC(=O)[C@H](CC(=O)O)NC(=O)[C@H](Cc3ccc(OCC(=O)O)cc3)NC(=O)[C@H](CC(N)=O)NC(=O)CSC[C@@H](C(=O)N[C@@H](CCN)C(=O)NCCCCCCCCCCC(=O)O)NC(=O)[C@H]([C@@H](C)O)NC(=O)[C@H](C(C)C)NC(=O)[C@H](CC3CCCCC3)NC(=O)[C@H](CCN)NC(=O)[C@@H](CC(C)C)NC(=O)[C@H](CCCN)NC(=O)[C@H](Cc3ccc(O)cc3)NC(=O)[C@H](Cc3ccc(-c4ccccc4)cc3)NC(=O)[C@H](C(C)C)NC2=O)c1 [Compound 2739] ({CH2CO}-NY(Carboxymethyl)D[Phe(3-Me)]V[Bip]Y[Orn][dL][Dab][Cha]VTC[Dab][Aun]-OH; thioether N-14),18.9 nM
5,Cc1cccc(C[C@@H]2NC(=O)[C@H](CC(=O)O)NC(=O)[C@H](Cc3cccnc3)NC(=O)[C@H](CC(N)=O)NC(=O)CSC[C@@H](C(=O)N[C@@H](CCN)C(=O)NCCCCCCCCCCC(=O)O)NC(=O)[C@H]([C@@H](C)O)NC(=O)[C@H](C(C)C)NC(=O)[C@H](CC3CCCCC3)NC(=O)[C@H](CCN)NC(=O)[C@@H](CC(C)C)NC(=O)[C@H](CCCN)NC(=O)[C@H](Cc3ccc(O)cc3)NC(=O)[C@H](Cc3ccc(-c4ccccc4)cc3)NC(=O)[C@H](C(C)C)NC2=O)c1 [Compound 2740] ({CH2CO}-N[3Pal]D[Phe(3-Me)]V[Bip]Y[Orn][dL][Dab][Cha]VTC[Dab][Aun]-OH; thioether N-14),19.7 nM
6,CC(C)C[C@H]1NC(=O)[C@H](CCCN)NC(=O)[C@H](Cc2ccc(O)cc2)NC(=O)[C@H](Cc2ccc(-c3ccccc3)cc2)NC(=O)[C@H](C(C)C)NC(=O)[C@H](Cc2c[nH]c3ccccc23)NC(=O)[C@H](CC(=O)O)NC(=O)[C@H](Cc2ccc(OCC(=O)O)cc2)NC(=O)[C@H](Cc2ccncc2)NC(=O)CSC[C@@H](C(=O)N[C@@H](CCN)C(=O)NCCCCCCCCCCC(=O)O)NC(=O)[C@H]([C@@H](C)O)NC(=O)[C@H](C(C)C)NC(=O)[C@H](CC2CCCCC2)NC(=O)[C@H](CCN)NC1=O [Compound 2741] ({CH2CO}-[4Pal]Y(Carboxymethyl)DWV[Bip]Y[Orn][dL][Dab][Cha]VTC[Dab][Aun]-OH; thioether N-14),54.3 nM

# The remaining lines, values ahead:
row,IC50,Compound
1,133 nM,CC(C)C[C@@H]1NC(=O)[C@H](CCN)NC(=O)[C@@H](CC(C)C)NC(=O)[C@H](CCCN)NC(=O)[C@H](Cc2ccc(O)cc2)NC(=O)[C@H](Cc2ccc(-c3ccccc3)cc2)NC(=O)[C@H](C(C)C)NC(=O)[C@H](Cc2c[nH]c3ccccc23)NC(=O)[C@H](CC(=O)O)NC(=O)[C@H](Cc2ccc(OCC(=O)O)cc2)NC(=O)[C@H](Cc2ccncc2)NC(=O)CSC[C@@H](C(=O)N[C@@H](CCN)C(=O)NCCCCCCCCCCC(=O)O)NC(=O)[C@H]([C@@H](C)O)NC(=O)[C@H](C(C)C)NC1=O [Compound 2742] ({CH2CO}-[4Pal]Y(Carboxymethyl)DWV[Bip]Y[Orn][dL][Dab]LVTC[Dab][Aun]-OH; thioether N-14)
2,97.6 nM,CC(C)C[C@H]1NC(=O)[C@H](CCCN)NC(=O)[C@H](Cc2ccc(O)cc2)NC(=O)[C@H](Cc2ccc(-c3ccccc3)cc2)NC(=O)[C@H](C(C)C)NC(=O)[C@H](Cc2c[nH]c3ccccc23)NC(=O)[C@H](CC(=O)O)NC(=O)[C@H](Cc2ccc(O)cc2)NC(=O)[C@H](Cc2ccncc2)NC(=O)CSC[C@@H](C(=O)N[C@@H](CCN)C(=O)NCCCCCCCCCCC(=O)O)NC(=O)[C@H]([C@@H](C)O)NC(=O)[C@H](C(C)C)NC(=O)[C@H](CC2CCCCC2)NC(=O)[C@H](CCN)NC1=O [Compound 2743] ({CH2CO}-[4Pal]YDWV[Bip]Y[Orn][dL][Dab][Cha]VTC[Dab][Aun]-OH; thioether N-14)
3,72.5 nM,Cc1cccc(C[C@@H]2NC(=O)[C@H](CC(=O)O)NC(=O)[C@H](Cc3ccc(OCC(=O)O)cc3)NC(=O)[C@H](Cc3ccncc3)NC(=O)CSC[C@@H](C(=O)N[C@@H](CCN)C(=O)NCCCCCCCCCCC(=O)O)NC(=O)[C@H]([C@@H](C)O)NC(=O)[C@H](C(C)C)NC(=O)[C@H](CC3CCCCC3)NC(=O)[C@H](CCN)NC(=O)[C@@H](CC(C)C)NC(=O)[C@H](CCCN)NC(=O)[C@H](Cc3ccc(O)cc3)NC(=O)[C@H](Cc3ccc(-c4ccccc4)cc3)NC(=O)[C@H](C(C)C)NC2=O)c1 [Compound 2744] ({CH2CO}-[4Pal]Y(Carboxymethyl)D[Phe(3-Me)]V[Bip]Y[Orn][dL][Dab][Cha]VTC[Dab][Aun]-OH; thioether N-14)
4,262 nM,Cc1cccc(C[C@@H]2NC(=O)[C@H](CC(=O)O)NC(=O)[C@H](Cc3ccc(O)cc3)NC(=O)[C@H](Cc3ccncc3)NC(=O)CSC[C@@H](C(=O)N[C@@H](CCN)C(=O)NCCCCCCCCCCC(=O)O)NC(=O)[C@H]([C@@H](C)O)NC(=O)[C@H](C(C)C)NC(=O)[C@H](CC3CCCCC3)NC(=O)[C@H](CCN)NC(=O)[C@@H](CC(C)C)NC(=O)[C@H](CCCN)NC(=O)[C@H](Cc3ccc(O)cc3)NC(=O)[C@H](Cc3ccc(-c4ccccc4)cc3)NC(=O)[C@H](C(C)C)NC2=O)c1 [Compound 2745] ({CH2CO}-[4Pal]YD[Phe(3-Me)]V[Bip]Y[Orn][dL][Dab][Cha]VTC[Dab][Aun]-OH; thioether N-14)
5,48.6 nM,CC(C)C[C@H]1NC(=O)[C@H](CCCN)NC(=O)[C@H](Cc2ccc(O)cc2)NC(=O)[C@H](Cc2ccc(-c3ccccc3)cc2)NC(=O)[C@H](C(C)C)NC(=O)[C@H](Cc2c[nH]c3ccccc23)NC(=O)[C@H](CC(=O)O)NC(=O)[C@H](Cc2ccncc2)NC(=O)[C@H](Cc2ccc(OCC(=O)O)cc2)NC(=O)CSC[C@@H](C(=O)N[C@@H](CCN)C(=O)NCCCCCCCCCCC(=O)O)NC(=O)[C@H]([C@@H](C)O)NC(=O)[C@H](C(C)C)NC(=O)[C@H](CC2CCCCC2)NC(=O)[C@H](CCN)NC1=O [Compound 2746] ({CH2CO}-Y(Carboxymethyl)[4Pal]DWV[Bip]Y[Orn][dL][Dab][Cha]VTC[Dab][Aun]-OH; thioether N-14)
6,45 nM,Cc1cccc(C[C@@H]2NC(=O)[C@H](CC(=O)O)NC(=O)[C@H](Cc3ccc(OCC(=O)O)cc3)NC(=O)[C@H](Cc3ccc(OCC(=O)O)cc3)NC(=O)CSC[C@@H](C(=O)N[C@@H](CCN)C(=O)NCCCCCCCCCCC(=O)O)NC(=O)[C@H]([C@@H](C)O)NC(=O)[C@H](C(C)C)NC(=O)[C@H](CC(C)C)NC(=O)[C@H](CCN)NC(=O)[C@@H](CC(C)C)NC(=O)[C@H](CCCN)NC(=O)[C@H](Cc3ccc(O)cc3)NC(=O)[C@H](Cc3ccc(-c4ccccc4)cc3)NC(=O)[C@H](CC(C)C)NC2=O)c1 [Compound 2747] ({CH2CO}-Y(Carboxymethyl)Y(Carboxymethyl)D[Phe(3-Me)]L[Bip]Y[Orn][dL][Dab]LVTC[Dab][Aun]-OH; thioether N-14)
7,147 nM,Cc1cccc(C[C@@H]2NC(=O)[C@H](CC(=O)O)NC(=O)[C@H](Cc3ccc(C(=O)O)cc3)NC(=O)[C@H](Cc3ccc(OCC(=O)O)cc3)NC(=O)CSC[C@@H](C(=O)N[C@@H](CCN)C(=O)NCCCCCCCCCCC(=O)O)NC(=O)[C@H]([C@@H](C)O)NC(=O)[C@H](C(C)C)NC(=O)[C@H](CC3CCCCC3)NC(=O)[C@H](CCN)NC(=O)[C@@H](CC(C)C)NC(=O)[C@H](CCCN)NC(=O)[C@H](Cc3ccc(O)cc3)NC(=O)[C@H](Cc3ccc(-c4ccccc4)cc3)NC(=O)[C@H](C(C)C)NC2=O)c1 [Compound 2748] ({CH2CO}-Y(Carboxymethyl)[Phe(4-COOH)]D[Phe(3-Me)]V[Bip]Y[Orn][dL][Dab][Cha]VTC[Dab][Aun]-OH; thioether N-14)
